Key:
[1] = test system: COX-2 (PTGHS2) gene expression; assay: qPCR of COX-2 gene expression in RAW 264.7 macrophages; format: cell-based; settings: peptide 10^−6 M, 30 min pre-incubation, IL-1β stimulation, RAW 264.7 mouse macrophages
Description: (§1) FIGS. 4A and 4B are graphs showing the results of qPCR analysis of IL-1β (FIG. 4A) and COX-2 (FIG. 4B) gene expression within lysates from RAW 264.7 mouse macrophage cells after exposure to peptides 1 and 2 (10^-6 M) or Kineret (1 mg/mL) followed by […] incubation overnight. Results represent an average of 3 independent experiments (each with n=4 per treatment group) and are expressed as a fold-change of the non-stimulated control: *p<0.05, **p<0.01 compared to group treated only with IL-1β, and 18S rRNA as internal control. Treatment groups that are not labeled with asterisks are statistically non-significant compared to group treated only with IL-1β.;
(§2) RAW Blue cells were purchased from InvivoGen® (San Diego, CA), used at passages under 15, and cultured in DMEM growth medium supplemented with 10% serum, 50 U/mL penicillin and […] zeocin. Cells were grown in regular conditions (37° C., 5% CO2), serum starved overnight, and treated with 100 ng/ML IL-1β for 4 h. Cells were respectively pre-incubated for 30 min with peptides 1 and 2 (10^−6 M) or Kineret® (1.0 mg/mL) to reach equilibrium prior to the experiments (n=4 each treatment). Cells were harvested and incubated for 5 min in RIBOzol® (AMRESCO). RNA was extracted according to manufacturer's protocol and RNA concentration and integrity were measured with a NanoDrop® 1,000 spectrophotometer. A total of 500 ng of RNA was used to synthesize cDNA using iScript Reverse Transcription SuperMix® (Bio-Rad, Hercules, CA). Primers (Table 1) were designed using National Center for Biotechnology Information Primer Blast. Quantitative gene expression analysis was performed on Stratagene® MXPro3000 (Stratagene) with SYBR Green Master Mix (Bio-Rad). Gene expression levels were normalized to 18S universal primer (Ambion Life Technology, Burlington ON, Canada). Genes analyzed include […] and PTGHS2 [Prostaglandin H synthetase 2 or cyclooxygenase-2 (COX-2)]. Data are representative of 3 experiments (each with n=4 per treatment group).

IL-1β gene expression = assay: qPCR of IL-1β gene expression in RAW 264.7 macrophages; format: cell-based; settings: peptide 10^−6 M, 30 min pre-incubation, IL-1β stimulation, RAW 264.7 mouse macrophages
Description: as §1, §2

timed-pregnant CD-1 mice = assay: LPS-induced preterm birth model in mice; format: in vivo, mouse; settings: 2 mg/kg/day subcutaneous, LPS 10 μg intraperitoneal on G16.5; for PTB rate: delivery before G18.5, LPS alone ˜80%
Description: FIG. 6 is a graph showing the effects of peptides 1 and 2 on prevention of PTB. In brief, pregnant dams on day 16.5 of gestation (G16.5) were subcutaneously pretreated with peptides 1 and 2 (2 mg/kg/day subcutaneous injections) or vehicle, followed by LPS (10 μg intraperitoneal injection), and observed for delivery of pups. A dam was considered as delivering preterm if at least one pup was delivered before G18.5. n=4-5 dams per treatment group.
Timed-pregnant CD-1 mice at 16.5 days of gestation (G16.5) were anesthetized with 2% isoflurane and received an intraperitoneal injection of lipopolysaccharide (LPS, n=4 per group, a single dose of 10 ug) (Nadeau-Vallée et al., 2015; Kakinuma et al., 1997). A dosage of 2 mg/kg/day of peptides 1 and 2 or vehicle was respectively injected subcutaneously in the neck, every 12h until delivery. On G16.5, a dose of 1 mg/kg was injected 30 min before stimulation with LPS (to allow distribution of drugs to target tissues) and 1 mg/kg was injected 12h after stimulation (n=4 each treatment). Mice delivery was assessed every hour until term (G19-G19.5). A mouse was considered as delivering prematurely if the first pup was delivered earlier than G18.5. Data was analyzed using Prism 7 (GraphPad Software, San Diego, CA, USA) with one-way ANOVA and Dunnett's test for multiple comparisons. Outliers were detected using Grubb's test. Results were treated as significant when p was <0.05 and expressed as mean+SEM.
From the results of the in vitro screens, a subset of six (3R,4S)-β-substituted-Agl^3 peptides (e.g., 2c, 2d, 2f, 2l, 2n, 2q) were selected for examination in vivo in a CD-1 mouse model of preterm birth (PTB), and a Sprague Dawley rat model of oxygen-induced retinopathy (OIR). In the PTB model, timed-pregnant CD-1 dams were pre-treated with peptides 1 or 2, or PBS vehicle, and then injected with LPS on day 16.5 of gestation (G16.5). A bacterial cell wall component that contains PAMPs, LPS is known to reliably induce labor via pro-inflammatory pathways implicating IL-1 (Hirsch and Wang 2005). The CD-1 mice have a gestation of 19.2 days (Goupil et al. 2010). Dams that delivered at least one pup before G18.5 were considered to have given birth prematurely. In the absence of peptide, LPS alone induced premature labor in ˜80% of treated mice (FIG. 6). Peptide 1 and triazoles 2 l and 2q, all reduced the PTB rate to ˜20%.

[2] = test system: IL-1β-induced phosphorylation of JNK; assay: IL-1β-induced JNK phosphorylation, Western blot, RAW Blue cells; format: cell-based; settings: peptide 10^−6 M 30 min, then IL-1β 15 min
Description: (§3) FIGS. 5A-C are graphs showing the effects of peptides 1 and 2 on IL-1β-induced phosphorylation of p38 (FIG. 5A), JNK (FIG. 5B), and ROCK2 (FIG. 5C). Graphical representations of band density analysis of Western Blots are shown as fold activation compared to control. RAW Blue cells were pretreated with peptides 1 and 2 (10^−6 M), Kineret (1 mg/mL), or vehicle for 30 min and then stimulated with IL-1β for 15 min. Results shown are the average of 3 independent experiments: *p<0.05, ** p<0.01, ***p<0.001 compared to group treated only with IL-1β. Treatment groups that are not labeled with asterisks are statistically non-significant compared to group treated only with IL-1β.

Sprague Dawley rat pups = assay: Oxygen-induced retinopathy (OIR) model; format: in vivo; settings: 2 mg/kg/day intraperitoneal twice daily, 80% oxygen P5 to P10; for extent of vaso-obliteration (percentage of total retinal area): vehicle ˜30%
Text: Experiments in the oxygen-induced retinopathy rodent model were preformed according to the method described previously (Geranurimi et al. 2019), and summarized below.
Animals. Two-day-old (P2) Sprague Dawley rat pups and their mothers were ordered from Charles River (Raleigh, SC, USA) and acclimatized for 3 days in standard conditions. All procedures and protocols involving the use of the rats were approved by the Animal Care Committee of the research center of Hopital Maisonneuve-Rosemont and are in accordance with the Statement for the Use of Animals in Ophthalmic and Vision Research approved by the Association for Research in Vision and Ophthalmology, and guidelines established by the Canadian Council on Animal Care.
Oxygen-Induced Retinopathy in Sprague Dawley Rats. The 80% oxygen model of retinopathy was conducted as previously described (Geranurimi et al. 2019). Briefly, litters of P5 pups and their mothers were kept in a controlled 80% oxygen environment until P10. The pups were respectively injected intraperitoneally twice daily with PBS vehicle (20 μL per injection), peptide 1 or derivatives 2 (titrated to a daily dose of 2 mg/kg/day). Control litters were kept under normal air atmosphere and standard conditions. On P10, pups were euthanized by decapitation under 2% isoflurane anesthesia. Eyes were enucleated and fixed in 4% paraformaldehyde, then stored at 4° C. in phosphate-buffered saline (PBS) until further processing.
Retinal Flatmount and Immunohistochemistry. The fixed eyes were dissected, and the obtained retinas were incubated with antibodies and mounted onto slides as previously described in (Geranurimi et al. 2019). Briefly, the cornea and lens were removed from the eyes, and the retina gently removed from the underlying sclera-choroid-retinal pigmented epithelium (RPE) complex. Retinas were treated for 1h with blocking solution [1% bovine serum albumin (BSA), 1% normal goat serum, 0.1% Triton X-100 and 0.05% Tween-20 in PBS], and then incubated overnight with lectin and Iba-1 primary antibody, followed by Alexa-594-conjugated secondary antibody for 2 h. Retinas were then mounted onto microscope slides under coverslips with anti-fade mounting medium.
Microscopy. Retinal flatmounts were imaged using the Zeiss Axiolmager Z2 and the MosaiX feature of the AxioVision software as previously described (Geranurimi et al. 2019). Representative images after Iba-1 staining were taken using a laser scanning confocal microscope (Olympus IX81 with Fluoview FV1000 Scanhead) using the Fluoview Software at 30× magnification.
Quantification and Data Analysis. The FIJI software was used to quantify the area of vaso-obliteration in each retina, expressed as a percentage of the area of the whole retina. The number of Iba-1-positive cells was counted using the cell counter plug-in in the FIJI software, and the average of cell counts in 4 fields per retina was calculated. Data was analyzed using Prism 7 with one-way ANOVA and the Dunnett's test for multiple comparisons. Results were treated as significant when p was less than 0.05 and expressed as mean+SEM.

[3] = test system: IL-1β-induced phosphorylation of ROCK2; assay: IL-1β-induced ROCK2 phosphorylation, Western blot, RAW Blue cells; format: cell-based; settings: peptide 10^−6 M 30 min, then IL-1β 15 min
Description: as §3

[4] = test system: IL-1β-induced NF-κB signaling in HEK-Blue IL-33/IL-1β cells; assay: NF-κB QUANTI-Blue assay; format: cell-based; settings: Kineret 1.0 mg/mL, 30 min pretreatment, IL-1β 100 ng/ml
Description: FIG. 3 is a graph showing the effects of peptides 1 and 2 on IL-1β-induced NF-κB signaling in HEK-Blue cells as quantified in the QUANTI-blue assay. After pre-incubation with peptide or vehicle, HEK-Blue cells were stimulated with IL-1β for 24 h, and secreted alkaline phosphatase activity was spectroscopically detected as a reporter product from the transcription of the NF-κB gene. Data shown represents the average of 2 experiments (each with n=4 per treatment group): ****p<0.0001 compared to group treated only with IL-1β.
HEK-Blue IL-33/IL-1β cells (InvivoGen) were respectively pretreated with peptides 1 and 2 (10^−6 M), or Kineret (1.0 mg/mL) for 30 min, followed by treatment with a constant concentration of […] (100 ng/ml), and incubation at 37° C. for 4 h. Levels of secreted alkaline phosphatase in cell culture supernatant were determined using the QUANTI-Blue assay, according to the manufacturer's instructions (InvivoGen). Alkaline phosphatase activity was assessed by measuring the optical density (OD) at 620-655 nm with an EnVision Multilabel micro plate reader (PerkinElmer, Waltham, MA). Data are representative of 3 experiments (each with n=4 per treatment group).

[5] = test system: IL-1β-induced phosphorylation of p38; assay: IL-1β-induced p38 phosphorylation, Western blot, RAW Blue cells; format: cell-based; settings: peptide 10^−6 M 30 min, then IL-1β 15 min
Description: as §3

| Substance | COX-2 pro-inflammatory gene expression (qPCR) [1] | IL-1β pro-inflammatory gene expression (qPCR) (IL-1β gene expression) | retinal microglial morphology/activation (Iba-1 staining) (Sprague Dawley rat pups) | extent of vaso-obliteration (percentage of total retinal area) (Sprague Dawley rat pups) [%] | further results |
| --- | --- | --- | --- | --- | --- |
| [(3R,4S)-4-(4′-(1,1-Dimethyl)aminomethyltriazolyl)Agl^3]-1 [2o] | strong inhibitory effects | strong inhibitory effects | – | – | – |
| [(3R,4S)-4-(4′-Hydroxymethyltriazolyl)Agl^3]-1 [2q] | strong inhibitory effects | strong inhibitory effects | ramified and branched microglia | ~20 | PTB rate (timed-pregnant CD-1 mice): ~20%; IL-1β-induced activation (phosphorylation) of JNK [2]: inhibited |
| [(3R,4S)-4-(H2NO)Agl^3]-1 [2g] | blocked expression | without effecting | – | – | IL-1β-induced ROCK2 phosphorylation [3]: inhibitory activity |
| [(3R,4S)-4-(PhthO)Agl^3]-1 [2f] | – | – | ramified and branched microglia | ~20 | effects on PTB (timed-pregnant CD-1 mice): Neither N-oxyphthalimide 2f nor 4-m-aminophenyltriazole 2n exhibited effects on PTB |
| [(3R, 4S)-4-(N3)Agl^3]-1 [2c] | – | – | active amoeboid state | – | protective effect against vaso-obliteration (Sprague Dawley rat pups): no detectable protective effect |
| Kineret®: the recombinant IL-1 receptor antagonist, Kineret® (anakinra) | – | – | – | – | effect on IL-1β-induced NF-κB signaling (secreted alkaline phosphatase) [4]: blocked |
| [(3R,4S)-4-(4′-Phenyltriazolyl)Agl^3]-1 [2l] | – | – | ramified and branched microglia | ~20 | IL-1β-induced p38 phosphorylation [5]: inhibiting; PTB rate (timed-pregnant CD-1 mice): ~20%; IL-1β-induced ROCK2 phosphorylation [3]: inhibitory activity; IL-1β-induced activation (phosphorylation) of JNK [2]: inhibited; protective effect against vaso-obliteration (Sprague Dawley rat pups): tendencies to have a stronger protective effect than peptide 1 |
| [(3S,4S)-4-(NCS)Agl^3]-1 [2d] | – | – | ramified and branched microglia | ~20 | IL-1β-induced p38 phosphorylation [5]: inhibiting; protective effect against vaso-obliteration (Sprague Dawley rat pups): tendencies to have a stronger protective effect than peptide 1 |
| [(3R,4S)-4-(4′-p-Methylphenyltriazolyl)Agl^3]-1 [2m] | strong inhibitory effects | strong inhibitory effects | – | – | – |
| [(3R,4S)-4-(4′-m-Aminophenyltriazolyl)Agl^3]-1 [2n] | – | – | ramified and branched microglia | ~20 | effects on PTB (timed-pregnant CD-1 mice): Neither N-oxyphthalimide 2f nor 4-m-aminophenyltriazole 2n exhibited effects on PTB |
| [(3R,4S)-4-(AcHN)Agl^3]-1 [2i] | blocked expression | without effecting | – | – | IL-1β-induced p38 phosphorylation [5]: inhibiting |
